Assay results from ChEMBL document CHEMBL6153133, “Discovery of Diphenyl Ether Derivatives as Novel BKCa Channel Activators: Structure-Activity Relationship, Cryo-EM Complex Structures, and In Vivo Animal Studies” (J Med Chem, 2025).
Each block holds one molecule with its values, some of them ahead of it.

Columns and labels:
[1] = molecular target: T1, Calcium-activated potassium channel subunit alpha-1 (Homo sapiens, UniProt Q12791); assay: Activation of BKca channel (unknown origin) by cell-based fluorescence assay
T1 sequence (Q12791 whole entry): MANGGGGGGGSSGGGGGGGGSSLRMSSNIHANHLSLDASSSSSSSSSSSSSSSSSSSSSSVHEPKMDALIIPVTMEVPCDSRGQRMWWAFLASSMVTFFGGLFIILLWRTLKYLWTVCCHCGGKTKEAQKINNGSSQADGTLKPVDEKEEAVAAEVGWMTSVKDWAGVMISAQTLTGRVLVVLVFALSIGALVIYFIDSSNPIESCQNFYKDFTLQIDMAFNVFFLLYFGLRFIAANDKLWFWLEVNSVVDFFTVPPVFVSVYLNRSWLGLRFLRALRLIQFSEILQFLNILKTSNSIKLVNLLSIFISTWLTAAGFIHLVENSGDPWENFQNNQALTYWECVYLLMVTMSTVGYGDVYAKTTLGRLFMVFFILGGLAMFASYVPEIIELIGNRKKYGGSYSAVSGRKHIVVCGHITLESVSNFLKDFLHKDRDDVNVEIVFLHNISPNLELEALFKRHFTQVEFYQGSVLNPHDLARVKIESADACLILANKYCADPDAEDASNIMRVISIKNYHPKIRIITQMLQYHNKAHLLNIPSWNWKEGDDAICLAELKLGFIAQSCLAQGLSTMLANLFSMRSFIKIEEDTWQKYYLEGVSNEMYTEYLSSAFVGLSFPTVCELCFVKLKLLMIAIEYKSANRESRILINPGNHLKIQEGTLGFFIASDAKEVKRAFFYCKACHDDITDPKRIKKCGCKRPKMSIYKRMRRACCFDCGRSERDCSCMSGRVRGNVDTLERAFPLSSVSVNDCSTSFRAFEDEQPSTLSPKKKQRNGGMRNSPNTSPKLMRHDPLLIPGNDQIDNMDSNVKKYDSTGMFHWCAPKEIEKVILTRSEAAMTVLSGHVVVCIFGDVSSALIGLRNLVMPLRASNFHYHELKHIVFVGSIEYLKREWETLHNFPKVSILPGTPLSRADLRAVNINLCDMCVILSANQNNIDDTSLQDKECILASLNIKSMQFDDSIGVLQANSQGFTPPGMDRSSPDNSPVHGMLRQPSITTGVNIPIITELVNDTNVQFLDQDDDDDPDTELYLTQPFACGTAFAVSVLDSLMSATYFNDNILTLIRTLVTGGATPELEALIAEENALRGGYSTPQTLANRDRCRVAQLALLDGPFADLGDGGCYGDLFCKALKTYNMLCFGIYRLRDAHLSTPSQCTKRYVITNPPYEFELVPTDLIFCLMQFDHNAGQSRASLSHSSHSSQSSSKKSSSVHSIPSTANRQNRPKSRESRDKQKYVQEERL

[2] = test system: Calcium-activated potassium channel subunit alpha-1 (Homo sapiens), Q12791 [UNDEFINED MUTATION]; assay: Activation of hyperactive human BKca channel G803D/N806K mutant transfected in human AD-293 cells assessed as maximum relative fluorescence value at 5 uM preincubated for 15 mins followed by Tl+ stimulus buffer addition and measured after 80 sec by Flexstation3 multimode microplate reader analysis relative to control; assay type: cell-based; conditions: time 980.0 sec
Sequence of Calcium-activated potassium channel subunit alpha-1 (Homo sapiens), Q12791 [UNDEFINED MUTATION] (Q12791 whole entry, looked up, stated change not applied): as the sequence (Q12791 whole entry) above

Urinary bladder = assay: Induction of relaxation in Sprague-Dawley rat urinary bladder strips assessed as reduction in contraction; assay type: functional, tissue-based
[3] = molecular target: T1, Calcium-activated potassium channel subunit alpha-1; assay: Activation of BKca channel (unknown origin) by cell based method
[4] = Half-life in male Sprague-Dawley rat at 10 mg/kg, iv by LC-MS/MS analysis; assay type: ADME, organism-based; conditions: in vivo
[5] = Clearance in male Sprague-Dawley rat at 10 mg/kg, iv by LC-MS/MS analysis; assay type: ADME, organism-based; conditions: in vivo
[6] = Volume of distribution at steady state in male Sprague-Dawley rat at 10 mg/kg, iv by LC-MS/MS analysis; assay type: ADME, organism-based; conditions: in vivo, read-out: Vdss
[7] = Cmax in male Sprague-Dawley rat at 10 mg/kg, po by LC-MS/MS analysis; assay type: ADME, organism-based; conditions: in vivo
Rattus norvegicus [8] = assay: Reversal of urinary incontinence in male spontaneous hypertensive rat model assessed as decrease in urine frequency at 0.1 mg/kg, ip measured after 3 hrs relative to control; assay type: functional; design: scale not given: the % may be the effect or the level left
[9] = Oral bioavailability in male Sprague-Dawley rat at 10 mg/kg by LC-MS/MS analysis; assay type: ADME, organism-based; conditions: in vivo
[10] = AUClast in male Sprague-Dawley rat at 10 mg/kg, po by LC-MS/MS analysis; assay type: ADME, organism-based; conditions: in vivo
Rattus norvegicus [11] = assay: Reversal of urinary incontinence in male spontaneous hypertensive rat model assessed as decrease in total urine volume at 1 mg/kg, ip measured after 3 hrs relative to control; assay type: functional; design: scale not given: the % may be the effect or the level left
[12] = Half-life in male Sprague-Dawley rat at 10 mg/kg, po by LC-MS/MS analysis; assay type: ADME, organism-based; conditions: in vivo
Rattus norvegicus [13] = assay: Reversal of urinary incontinence in male spontaneous hypertensive rat model assessed as decrease in urine frequency at 0.3 mg/kg, ip measured after 3 hrs relative to control; assay type: functional; design: scale not given: the % may be the effect or the level left
[14] = AUClast in male Sprague-Dawley rat at 10 mg/kg, iv by LC-MS/MS analysis; assay type: ADME, organism-based; conditions: in vivo
[15] = Tmax in male Sprague-Dawley rat at 10 mg/kg, po by LC-MS/MS analysis; assay type: ADME, organism-based; conditions: in vivo
[16] = Activation of rat BKca channel extracted from Xenopus laevis Oocytes by patch-clamp electrophysiology recordings; assay type: cell-based; conditions: Oocyte
[17] = Metabolic stability in rat liver microsomes assessed as parent compound remaining at 1 uM preincubated for 5 mins followed by NADPH addition and measured after 30 mins by LC-MS/MS analysis; assay type: ADME, Microsome; conditions: read-out: Stability
[18] = Metabolic stability in human liver microsomes assessed as parent compound remaining at 1 uM preincubated for 5 mins followed by NADPH addition and measured after 30 mins by LC-MS/MS analysis; assay type: ADME, Microsome; conditions: read-out: Stability
[19] = Permeability of compound at pH 7.4 measured after 4 hrs by GIT-PAMPA assay; assay type: ADME; conditions: read-out: permeability
[20] = Metabolic stability in human liver microsomes assessed as parent compound remaining at 1 uM preincubated for 15 mins followed by UDPGA addition and measured after 60 mins by LC-MS/MS analysis; assay type: ADME, Microsome; conditions: time 75 min, read-out: Stability
[21] = Drug metabolism in male Sprague-Dawley rat assessed as glucuronide conjugated metabolite formation at 10 mg/kg, po measured after approximately 4.2 hrs by LC-MS/MS analysis; assay type: ADME, organism-based; conditions: in vivo
[22] = Metabolic stability in rat liver microsomes assessed as parent compound remaining at 1 uM preincubated for 15 mins followed by UDPGA addition and measured after 60 mins by LC-MS/MS analysis; assay type: ADME, Microsome; conditions: time 75 min, read-out: Stability
[23] = molecular target: Calcium-activated potassium channel subunit alpha-1 (Homo sapiens, UniProt Q12791, G803D/N806K); assay: Activation of hyperactive human BKca channel G803D/N806K mutant transfected in human AD-293 cells incubated for 15 mins by Flexstation3 multimode microplate reader analysis; assay type: cell-based
Sequence of Calcium-activated potassium channel subunit alpha-1 (Homo sapiens, UniProt Q12791, G803D/N806K) (Q12791 whole entry, looked up, stated change not applied): as the sequence (Q12791 whole entry) above

[24] = molecular target: T1, Calcium-activated potassium channel subunit alpha-1; assay: Activation of human BK ca channel expressed in CHO cells by whole cell patch clamp method; assay type: cell-based

EC50 [1]: 5.4 µM
Activity [2]: 34.9%
EC50 (Urinary bladder): 2500 nM
EC50 [3]: 5.4 µM
SMILES: O=C(O)c1ccc(Cl)c2c1[nH]c1c3ccc(C(F)(F)F)cc3oc12

half-life [4]: 270 min
clearance [5]: 115 mL/min/kg
Vd [6]: 13.2 L/kg
Cmax [7]: 61.5 ng/mL
bioavailability [9]: 23.5%
AUC(0-t) [10]: 344 ng·h/mL
half-life [12]: 234 min
AUC(0-t) [14]: 1450 ng·h/mL
Tmax [15]: 4.2 h
SMILES: Cl.Nc1ccc(Oc2c(F)c(F)c(C(F)(F)F)c(F)c2F)c(O)c1
Activity (Rattus norvegicus [8]): 43%
Activity (Rattus norvegicus [11]): 48.5%
Activity (Rattus norvegicus [13]): 65%

EC50 [16]: 280 nM
remaining at 0.5 h, 1 µM [17]: 34.6%
remaining at 0.5 h, 1 µM [18]: 97%
Papp at 4 h [19]: 41.1 ×10⁻⁶ cm/s
remaining at 1 h, 1 µM [20]: 4.8%
Drug metabolism [21]: metabolite_detected
remaining at 1 h, 1 µM [22]: 5.8%
EC50 [23]: 120 nM
SMILES: Nc1ccc(Oc2c(F)c(F)c(C(F)(F)F)c(F)c2F)c(O)c1

EC50 [24]: 111 µM
SMILES: CCc1oc2ccccc2c1C(=O)c1cc(Br)c(O)c(Br)c1 [BENZBROMARONE]
